# Assay results from ChEMBL document CHEMBL1201862, “PubChem BioAssay data set” (2004).
#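 Grown in 96-well plates, cells were treated for 48 hours with each compound at five concentrations. Insufficient inhibition: endpoint recorded as highest concentration tested. Here, GI50 denotes the concentration required for 50% inhibition of growth.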 The source made the active and inactive calls. Rule as the data show it: active = GI50 up to about 1.1 µM and inactive = higher.
# What was measured:
# Assay in all cases: NCI-60 cell line screen, 48 h
# CAKI-1 = system: CAKI-1
# LXFL 529 = system: LXFL 529
# SR = system: SR
# HL-60 = system: HL-60
# SNB-78 = system: SNB-78
# UO-31 = system: UO-31
# NCI-H460 = system: NCI-H460
# M19-MEL = system: M19-MEL
# SF-295 = system: SF-295
# SN12C = system: SN12C
# SW-620 = system: SW-620
# U-251 = system: U-251
# SF-268 = system: SF-268
# OVCAR-5 = system: OVCAR-5
# SNB-75 = system: SNB-75
# OVCAR-3 = system: OVCAR-3
# HT-29 = system: HT-29
# SK-OV-3 = system: SK-OV-3
# SK-MEL-2 = system: SK-MEL-2
# A498 = system: A498
# RXF 393 = system: RXF 393
# SNB-19 = system: SNB-19
# A549 = system: A549
# KM12 = system: KM12
# NCI-H226 = system: NCI-H226
# DMS-114 = system: DMS-114
# M14 = system: M14
# MOLT-4 = system: MOLT-4
# COLO 205 = system: COLO 205
# OVCAR-4 = system: OVCAR-4
# HCT-15 = system: HCT-15
# UACC-257 = system: UACC-257
# SF-539 = system: SF-539
# ACHN = system: ACHN
# OVCAR-8 = system: OVCAR-8
# 786-0 = system: 786-0
# RPMI-8226 = system: RPMI-8226
# DMS-273 = system: DMS-273
# SK-MEL-28 = system: SK-MEL-28
# DLD-1 = system: DLD-1
# HCT-116 = system: HCT-116
# HOP-92 = system: HOP-92
# CCRF-CEM = system: CCRF-CEM
# KM-20L2 = system: KM-20L2
# LOX IMVI = system: LOX IMVI
# SK-MEL-5 = system: SK-MEL-5
# NCI-H23 = system: NCI-H23
# TK-10 = system: TK-10
# UACC-62 = system: UACC-62
# K562 = system: K562
# HOP-62 = system: HOP-62
# EKVX = system: EKVX
# Malme-3M = system: Malme-3M
# NCI-H522 = system: NCI-H522
# IGROV-1 = system: IGROV-1
# XF498 = system: XF498
# HCC 2998 = system: HCC 2998
smiles,measurement,setting,value
CN1C(c2ccccc2)CC(O)CC1c1ccccc1 (configuration not stated),GI50,CAKI-1,> 100 µM (inactive)
same,GI50,LXFL 529,> 100 µM (inactive)
same,GI50,SR,> 100 µM (inactive)
same,GI50,HL-60,> 100 µM (inactive)
same,GI50,SNB-78,> 100 µM (inactive)
same,GI50,UO-31,> 100 µM (inactive)
same,GI50,NCI-H460,> 100 µM (inactive)
same,GI50,M19-MEL,> 100 µM (inactive)
same,GI50,SF-295,> 100 µM (inactive)
same,GI50,SN12C,> 100 µM (inactive)
same,GI50,SW-620,> 100 µM (inactive)
same,GI50,U-251,> 100 µM (inactive)
same,GI50,SF-268,> 100 µM (inactive)
same,GI50,OVCAR-5,> 100 µM (inactive)
same,GI50,SNB-75,> 100 µM (inactive)
same,GI50,OVCAR-3,> 100 µM (inactive)
same,GI50,HT-29,> 100 µM (inactive)
same,GI50,SK-OV-3,> 100 µM (inactive)
same,GI50,SK-MEL-2,> 100 µM (inactive)
same,GI50,A498,> 100 µM (inactive)
same,GI50,RXF 393,> 100 µM (inactive)
same,GI50,SNB-19,> 100 µM (inactive)
same,GI50,A549,> 100 µM (inactive)
same,GI50,KM12,> 100 µM (inactive)
same,GI50,NCI-H226,> 100 µM (inactive)
same,GI50,DMS-114,> 100 µM (inactive)
same,GI50,M14,> 100 µM (inactive)
same,GI50,MOLT-4,> 100 µM (inactive)
same,GI50,COLO 205,> 100 µM (inactive)
same,GI50,OVCAR-4,> 100 µM (inactive)
same,GI50,HCT-15,> 100 µM
same,GI50,UACC-257,> 100 µM (inactive)
same,GI50,SF-539,> 100 µM (inactive)
same,GI50,ACHN,> 100 µM (inactive)
same,GI50,OVCAR-8,> 100 µM (inactive)
same,GI50,786-0,> 100 µM (inactive)
same,GI50,RPMI-8226,> 100 µM (inactive)
same,GI50,DMS-273,> 100 µM (inactive)
same,GI50,SK-MEL-28,> 100 µM (inactive)
same,GI50,DLD-1,> 100 µM (inactive)
same,GI50,HCT-116,> 100 µM (inactive)
same,GI50,HOP-92,> 100 µM (inactive)
same,GI50,CCRF-CEM,> 100 µM (inactive)
same,GI50,KM-20L2,> 100 µM (inactive)
same,GI50,LOX IMVI,> 100 µM (inactive)
same,GI50,SK-MEL-5,> 100 µM (inactive)
same,GI50,NCI-H23,> 100 µM (inactive)
same,GI50,TK-10,> 100 µM (inactive)
same,GI50,UACC-62,> 100 µM (inactive)
same,GI50,K562,> 100 µM (inactive)
same,GI50,HOP-62,> 100 µM (inactive)
same,GI50,EKVX,> 100 µM (inactive)
same,GI50,Malme-3M,> 100 µM (inactive)
same,GI50,NCI-H522,> 100 µM (inactive)
same,GI50,IGROV-1,> 100 µM (inactive)
CC(c1ccc2c(c1)CCC1C2CC2OC23CC=CC(=O)[C@]13C)C1C[C@]2(C)O[C@]2(C)[C@H](O)O1 (some centres not stated),GI50,CAKI-1,7.64 µM (inactive)
same,GI50,LXFL 529,10.6 µM (inactive)
same,GI50,SR,13.1 µM (inactive)
same,GI50,XF498,56.9 µM (inactive)
same,GI50,HL-60,1.96 µM (inactive)
same,GI50,UO-31,10.5 µM (inactive)
same,GI50,NCI-H460,25.2 µM (inactive)
same,GI50,M19-MEL,34.4 µM (inactive)
same,GI50,SN12C,> 100 µM (inactive)
same,GI50,SW-620,25.3 µM (inactive)
same,GI50,U-251,3.61 µM (inactive)
same,GI50,SF-268,63.4 µM (inactive)
same,GI50,OVCAR-5,> 100 µM (inactive)
same,GI50,SNB-75,58.9 µM (inactive)
same,GI50,OVCAR-3,19.2 µM (inactive)
same,GI50,HT-29,47.1 µM (inactive)
same,GI50,SK-OV-3,> 100 µM (inactive)
same,GI50,SK-MEL-2,52.2 µM (inactive)
same,GI50,RXF 393,11.7 µM (inactive)
same,GI50,SNB-19,15.9 µM (inactive)
same,GI50,A549,16.1 µM (inactive)
same,GI50,KM12,36.6 µM (inactive)
same,GI50,NCI-H226,12.1 µM (inactive)
same,GI50,DMS-114,0.429 µM (active)
same,GI50,M14,10.7 µM (inactive)
same,GI50,MOLT-4,13.4 µM (inactive)
same,GI50,COLO 205,71.9 µM (inactive)
same,GI50,HCT-15,82.4 µM
same,GI50,UACC-257,11.1 µM (inactive)
same,GI50,SF-539,82.4 µM (inactive)
same,GI50,ACHN,33.7 µM (inactive)
same,GI50,OVCAR-8,37 µM (inactive)
same,GI50,786-0,> 100 µM (inactive)
same,GI50,RPMI-8226,2 µM (inactive)
same,GI50,DMS-273,21.7 µM (inactive)
same,GI50,SK-MEL-28,50.8 µM (inactive)
same,GI50,HCT-116,0.256 µM (active)
same,GI50,HOP-92,92.9 µM (inactive)
same,GI50,CCRF-CEM,15.4 µM (inactive)
same,GI50,KM-20L2,34.8 µM (inactive)
same,GI50,LOX IMVI,20.1 µM (inactive)
same,GI50,SK-MEL-5,11 µM (inactive)
same,GI50,NCI-H23,0.219 µM (active)
same,GI50,TK-10,> 100 µM (inactive)
same,GI50,HCC 2998,83.4 µM (inactive)
same,GI50,UACC-62,91.2 µM (inactive)
same,GI50,K562,3.14 µM (inactive)
same,GI50,HOP-62,0.791 µM (active)
same,GI50,EKVX,5.48 µM (inactive)
same,GI50,Malme-3M,71.4 µM (inactive)
same,GI50,NCI-H522,14 µM (inactive)
same,GI50,IGROV-1,90.6 µM (inactive)
